Results from US9481669B2, “Pladienolide pyridine compounds and methods of use” (Eisai R&D Management Co., Ltd., priority 2014, dated 2016).

How the values were obtained:
[1] = test system: Pre-EIF4A1 and SLC25A19 expression in Nalm-6 SF3B1^K700E xenograft tumors; test: PK/PD testing in Nalm-6 mouse xenograft model; type: in vivo, CB17-SCID mice; conditions: single oral dose
Experimental: Pharmacokinetics (PK)/pharmacodynamics (PD) of Compound 2 were also analyzed in the Nalm-6 mouse xenograft model. Nalm-6 SF3B1^K700E isogenic cells (human pre B-cell line, 10×10^6 cells) were subcutaneously implanted into the flank of female CB17-SCID mice. Mice were administered a single oral dose of 10 mg/kg Compound 2 (10% ethanol, 5% TWEEN-80, 85% saline), and the tumors were collected at the indicated times post administration for analysis.
RNA was isolated using RiboPure™ RNA purification kit (Ambion®) and used for qPCR analysis. The RNA was retrotranscribed according to the instructions of the SuperScript® VILO™ cDNA synthesis kit (Invitrogen™), and 0.04 μl of cDNA was used for quantitative PCR (qPCR). qPCR for pre-mRNA EIF4A1 and mature mRNA […] and PK evaluation were performed as reported previously (Eskens, F. A. et al. Phase I pharmacokinetic and pharmacodynamic study of the first-in-class spliceosome inhibitor E7107 in patients with advanced solid tumors. Clin Cancer Res. 19, 6296-6304, doi:10.1158/1078-0432.CCR-13-0485 (2013)). All animal studies were carried out according to the H3 Biomedicine Guide for the Care and Use of Laboratory Animals.
Pharmacokinetics (PK)/pharmacodynamics (PD) of Compound 1 were also analyzed in the Nalm-6 mouse xenograft model. […]

[2] = test system: alternative splicing in Nalm-6 isogenic cells; test: Alternative splicing modulation (nCounter Nanostring analysis); type: cell-based, human; conditions: 10×GI50 for 6 hours
Experimental: The “+” and “−” indicate positive or negative values, respectively, in the shade key, which indicates the varying levels of expression of the different splice junctions.
The modulation of alternative splicing for E7107 and Compound 2 was determined using the nCounter® analysis system (NanoString Techologies, Inc., Seattle, Wash.). Nalm-6 isogenic cells were treated with Compound 2 or E7107 (obtained from Eisai, Inc.) at 10×GI50 for 6 hours. RNA was isolated using RiboPure™ RNA purification kit (Ambion®) and used for analysis. The RNA was retrotranscribed according to the instructions of the SuperScript® VILO™ cDNA synthesis kit (Invitrogen™) and 0.04 μl of cDNA was used for qPCR.

[3] = test system: Panc 05.04 cancer cells (SF3B1^MUT) vs BXPC3, HPAFII, PANC0403, PANC1005, CFPAC1 and MIAPACA2; test: Cellular viability assay, mutant vs wild-type SF3B1 pancreatic cancer cell lines; type: cell-based; conditions: 72 hours at 37° C., 384-well plate
Experimental: To assess the viability of Panc 05.04 cancer cells (SF3B1^MUT) (Q699H and K700E mutations in SF3B1) in the presence of Compound 2, cells were seeded at 750 cells per well in a 384-well plate and treated with Compound 2 at the concentrations indicated in FIG. 4 for 72 hours at 37° C. The relative number of viable or apoptotic cells were measured by luminescence using CELLTITER-GLO® luminescent Cell Viability Assay (Promega).

SMILES: C/C(=C\C=C\[C@@H](C)c1ccccn1)[C@H]1OC(=O)C[C@H](O)CC[C@@](C)(O)[C@@H](OC(=O)N2CCN(C)CC2)/C=C/[C@@H]1C [Compound 2, (2S,3 S,6S,7R,10R,E)-7,10-dihydroxy-3,7-dimethyl-12-oxo-2-((R,2E,4E)-6-(pyridin-2-yl)hepta-2,4-dien-2-yl)oxacyclododec-4-en-6-yl 4-methylpiperazine-1-carboxylate]
- PD responses (fold change in Pre-EIF4A1 and SLC25A19 expression in tumor) [1]: showed PD responses at a tolerated dose
- splicing modulation profile [2]: distinct from the profile of E7107
- differential cellular lethality, mutant vs wild-type SF3B1 pancreatic cancer cell lines [3]: differential cellular lethality in the mutant SF3B1 pancreatic cancer cell line over wild-type SF3B1 pancreatic cancer cell lines

SMILES: C/C(=C\C=C\[C@@H](C)c1ccccn1)[C@H]1OC(=O)C[C@H](O)CC[C@@](C)(O)[C@@H](OC(=O)N2CCN(C3CCCCCC3)CC2)/C=C/[C@@H]1C [Compound 1, (2S,3S,6S,7R,10R,E)-7,10-dihydroxy-3,7-dimethyl-12-oxo-2-((R,2E,4E)-6-(pyridin-2-yl)hepta-2,4-dien-2-yl)oxacyclododec-4-en-6-yl 4-cycloheptylpiperazine-1-carboxylate]
- PD responses (fold change in Pre-EIF4A1 and SLC25A19 expression in tumor) [1]: showed PD responses at a tolerated dose
